Our source for the Ki values is patent US7291621B2, “Substituted biaryl amides C5a receptor modulators” (Neurogen Corporation, priority 2002, dated 2007).

The assay deals with T1, C5a receptor (Homo sapiens, UniProt P21730).
T1 construct: endogenous in cells; host or cells: U937 cells differentiated with 1 mM dibutyryl cAMP
T1 sequence (P21730 1-350): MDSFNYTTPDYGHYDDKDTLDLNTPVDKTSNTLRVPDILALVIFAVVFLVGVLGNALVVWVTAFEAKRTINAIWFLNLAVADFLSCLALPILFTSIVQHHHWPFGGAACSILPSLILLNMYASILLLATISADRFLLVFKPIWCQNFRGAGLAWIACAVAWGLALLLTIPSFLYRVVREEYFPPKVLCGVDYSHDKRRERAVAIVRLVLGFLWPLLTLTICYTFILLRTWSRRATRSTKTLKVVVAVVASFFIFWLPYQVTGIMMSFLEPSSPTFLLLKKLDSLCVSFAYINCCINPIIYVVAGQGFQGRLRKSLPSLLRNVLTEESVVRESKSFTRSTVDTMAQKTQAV
Kind of assay: standard assay of C5a receptor mediated calcium mobilization. It is filed as cell-based. As to conditions: Table I; asterisk = tested in C5a receptor mediated calcium mobilization assay; read-out: Ca2+ Mob. The procedure:
U937 cells are grown in differentiation media (1 mM dibutyrl cAMP in RPMI 1640 medium containing 10% fetal bovine serum) for 48 hrs at 37° C. then reseeded onto 96-well plates suitable for use in a FLIPR™ Plate Reader (Molecular Devices Corp., Sunnyvale Calif.). Cells are grown an additional 24 hours (to 70-90% confluence) before the assay. The cells are then washed once with Krebs Ringer solution. FLUO-3 calcium sensitive dye (Molecular Probes, Inc. Eugene, Oreg.) is added to 10 μg/mL and incubated with the cells at room temperature for 1 to 2 hours. The 96 well plates are then washed to remove excess dye. Fluorescence responses, measured by excitation at 480 nm and emission at 530 nm, are monitored upon the addition of human C5a to the cells to a final concentration of 0.01-30.0 nM, using the FLIPR™ device (Molecular Devices).
The calcium mobilization assay described above may be readily adapted for identifying test compounds that have agonist or antagonist activity at the human C5a receptor.
For example, in order to identify antagonist compounds, differentiated U937 cells are washed and incubated with Fluo-3 dye as described above. One hour prior to measuring the fluorescence signal, a subset of the cells is incubated with 1 μM of at least one compound to be tested. The fluorescence response upon the subsequent addition of 0.3 nM (final concentration) human recombinant C5a is monitored using the FLIPR™ plate reader. Antagonist compounds elicit at least a 2-fold decrease in the fluorescence response relative to that measured in the presence of human C5a alone. Preferred antagonist compounds elicit at least a 5-fold, preferably at least a 10-fold, and more preferably at least a 20-fold decrease in the fluorescence response relative to that measured in the presence of human C5a alone.

Molecules are shown by their SMILES.

As to `Cc1ccccc1CN(C(=O)c1ccccc1-c1ccccc1)C1Cc2ccccc2C1` [compound 73, N-(indan-2-yl)-N-(2-methylbenzyl)-1,1′-biphenyl-2-carboxamide], the Ki is under 1000 nM.

For `Cc1cccc(CN(C(=O)c2ccccc2-c2ccccc2)C2Cc3ccccc3C2)c1` [compound 74, N-(indan-2-yl)-N-(3-methylbenzyl)-1,1′-biphenyl-2-carboxamide], the Ki was under 1000 nM.

On to `Cc1ccc(CN(C(=O)c2ccccc2-c2ccccc2)C2Cc3ccccc3C2)cc1` [compound 75, N-(indan-2-yl)-N-(4-methylbenzyl)-1,1′-biphenyl-2-carboxamide], for which the Ki was under 1000 nM.

Turning to `O=C(c1ccccc1-c1ccccc1)N(Cc1ccc(F)cc1)C1Cc2ccccc2C1` [compound 76, N-(indan-2-yl)-N-(4-fluorobenzyl)-1,1′-biphenyl-2-carboxamide], the Ki was under 1000 nM.

On to `O=C(c1ccccc1-c1ccccc1)N(Cc1cccc(F)c1)C1Cc2ccccc2C1` [compound 77, N-(indan-2-yl)-N-(3-fluorobenzyl)-1,1′-biphenyl-′-carboxamide], for which the Ki was under 1000 nM.

As to `O=C(c1ccccc1-c1ccccc1)N(Cc1ccccc1F)C1Cc2ccccc2C1` [compound 78, N-(indan-2-yl)-N-(2-fluorobenzyl)-1,1′-biphenyl-2-carboxamide], the Ki is under 1000 nM.

For `O=C(c1ccccc1-c1ccccc1)N(Cc1ccc2c(c1)OCO2)C1Cc2ccccc2C1` [compound 79, N-(1,3-benzodioxol-5-ylmethyl)-N-(indan-2-yl)-1,1′-biphenyl-2-carboxamide], the Ki is under 1000 nM.

Regarding `O=C(c1ccccc1-c1ccccc1)N(Cc1ccc(F)c(F)c1)C1Cc2ccccc2C1` [compound 80, N-(3,4-difluorobenzyl)-N-(indan-2-yl)-1,1′-biphenyl-2-carboxamide], the Ki is under 1000 nM.

As to `COc1ccccc1CN(C(=O)c1ccccc1-c1ccsc1)C1Cc2ccccc2C1` [compound 81, N-(indan-2-yl)-N-(2-methoxybenzyl)-2-thien-3-ylbenzamide], the Ki was under 1000 nM.

As for `COc1ccccc1CN(C(=O)c1ccccc1-c1ccccc1F)C1Cc2ccccc2C1` [compound 82, N-(indan-2-yl)-2′-fluoro-N-(2-methoxybenzyl)-1,1′-biphenyl-2-carboxamide], the Ki was under 1000 nM.

Take `COc1ccc(CN(C(=O)c2ccccc2-c2ccsc2)C2Cc3ccccc3C2)cc1` [compound 83, N-(indan-2-yl)-N-(4-methoxybenzyl)-2-thien-3-ylbenzamide]: the Ki is under 1000 nM.

As to `COc1cc(CN(C(=O)c2ccccc2-c2ccsc2)C2Cc3ccccc3C2)cc(OC)c1` [compound 84, N-(indan-2-yl)-N-(3,5-dimethoxybenzyl)-2-thien-3-ylbenzamide], the Ki is under 1000 nM.

Consider `O=C(c1ccccc1-c1ccsc1)N(Cc1cccc(-c2ccsc2)c1)C1Cc2ccccc2C1` [compound 85, N-(indan-2-yl)-2-thien-3-yl-N-(3-thien-3-ylbenzyl)benzamide], for which the Ki was under 1000 nM.

For `O=C(c1ccccc1-c1ccsc1)N(Cc1ccc2ccccc2c1)C1Cc2ccccc2C1` [compound 86, N-(indan-2-yl)-N-(2-naphthylmethyl)-2-thien-3-ylbenzamide], the Ki was under 1000 nM.

For the compound `O=C(c1ccccc1-c1ccccc1F)N(Cc1ccccc1)Cc1ccccc1` [compound 87, N,N-dibenzyl-2′-fluoro-1,1′-biphenyl-2-carboxamide], the Ki was under 1000 nM.

As for `Cc1ccc(CN(C(=O)c2ccccc2-c2ccc(C)cc2)C2Cc3ccccc3C2)cc1` [compound 88, N-(indan-2-yl)-4′-methyl-N-(4-methylbenzyl)-1,1′-biphenyl-2-carboxamide], the Ki was under 1000 nM.

As to `COc1cccc(-c2ccccc2C(=O)N(Cc2ccc(C)cc2)C2Cc3ccccc3C2)c1` [compound 89, N-(indan-2-yl)-3′-methoxy-N-(4-methylbenzyl)-1,1′-biphenyl-2-carboxamide], the Ki was under 1000 nM.

Consider `Cc1ccc(CN(C(=O)c2ccccc2-c2ccccc2F)C2Cc3ccccc3C2)cc1` [compound 90, N-(indan-2-yl)-2′-fluoro-N-(4-methylbenzyl)-1,1′-biphenyl-2-carboxamide], for which the Ki is under 1000 nM.

As to `Cc1ccc(-c2ccccc2C(=O)N(Cc2ccc(F)cc2)C2Cc3ccccc3C2)cc1` [compound 91, N-(indan-2-yl)-N-(4-fluorobenzyl)-4′-methyl-1,1′-biphenyl-2-carboxamide], the Ki was under 1000 nM.

`COc1cccc(-c2ccccc2C(=O)N(Cc2ccc(F)cc2)C2Cc3ccccc3C2)c1` [compound 92, N-(indan-2-yl)-N-(4-fluorobenzyl)-3′-methoxy-1,1′-biphenyl-2-carboxamide]: the Ki is under 1000 nM.

With `O=C(c1ccccc1-c1ccccc1F)N(Cc1ccc(F)cc1)C1Cc2ccccc2C1` [compound 93, N-(indan-2-yl)-2′-fluoro-N-(4-fluorobenzyl)-1,1′-biphenyl-2-carboxamide], the Ki was under 1000 nM.

For `Cc1ccc(-c2ccccc2C(=O)N(Cc2ccccc2F)C2Cc3ccccc3C2)cc1` [compound 94, N-(indan-2-yl)-N-(2-fluorobenzyl)-4′-methyl-1,1′-biphenyl-2-carboxamide], the Ki is under 1000 nM.

Consider `Cc1ccc(-c2ccccc2C(=O)N(Cc2cccc(F)c2)C2Cc3ccccc3C2)cc1` [compound 95, N-(indan-2-yl)-N-(3-fluorobenzyl)-4′-methyl-1,1′-biphenyl-2-carboxamide], for which the Ki was under 1000 nM.

As to `O=C(c1ccccc1-c1ccccc1F)N(Cc1cccc(F)c1)C1Cc2ccccc2C1` [compound 96, N-(indan-2-yl)-2′-fluoro-N-(3-fluorobenzyl)-1,1′-biphenyl-′-carboxamide], the Ki was under 1000 nM.

With `Cc1ccc(-c2ccccc2C(=O)N(Cc2cccc(C)c2)C2Cc3ccccc3C2)cc1` [compound 97, N-(indan-2-yl)-4′-methyl-N-(3-methylbenzyl)-1,1′-biphenyl-2-carboxamide], the Ki is under 1000 nM.

For `COc1cccc(-c2ccccc2C(=O)N(Cc2cccc(C)c2)C2Cc3ccccc3C2)c1` [compound 98, N-(indan-2-yl)-3′-methoxy-N-(3-methylbenzyl)-1,1′-biphenyl-2-carboxamide], the Ki is under 1000 nM.

Regarding `Cc1cccc(CN(C(=O)c2ccccc2-c2ccccc2F)C2Cc3ccccc3C2)c1` [compound 99, N-(indan-2-yl)-2′-fluoro-N-(3-methylbenzyl)-1,1′-biphenyl-2-carboxamide], the Ki was under 1000 nM.

In the case of `Cc1ccc(-c2ccccc2C(=O)N(Cc2ccccc2C)C2Cc3ccccc3C2)cc1` [compound 100, N-(indan-2-yl)-4′-methyl-N-(2-methylbenzyl)-1,1′-biphenyl-2-carboxamide], the Ki is under 1000 nM.

Consider `COc1cccc(CN(C(=O)c2c(OC)cccc2-c2ccccc2)C2Cc3ccccc3C2)c1` [compound 101, N-(indan-2-yl)-3-methoxy-N-(3-methoxybenzyl)-1,1′-biphenyl-2-carboxamide], for which the Ki is under 1000 nM.

For `COc1cccc(CN(C(=O)c2cc(OC)ccc2-c2ccc(C)s2)C2Cc3ccccc3C2)c1` [compound 102, N-(indan-2-yl)-5-methoxy-N-(3-methoxybenzyl)-2-(5-methylthien-2-yl)benzamide], the Ki was under 1000 nM.

On to `COc1cccc(CN(C(=O)c2cc(OC)ccc2-c2ccccc2)C2Cc3ccccc3C2)c1` [compound 103, N-(indan-2-yl)-4-methoxy-N-(3-methoxybenzyl)-1,1′-biphenyl-2-carboxamide], for which the Ki is under 1000 nM.

`COc1cccc(CN(C(=O)c2cc(OC)ccc2-c2ccsc2)C2Cc3ccccc3C2)c1` [compound 104, N-(indan-2-yl)-5-methoxy-N-(3-methoxybenzyl)-2-thien-3-ylbenzamide]: the Ki was under 1000 nM.

`COc1ccc(-c2ccccc2)c(C(=O)N(Cc2ccccc2C)C2Cc3ccccc3C2)c1` [compound 105, N-(indan-2-yl)-4-methoxy-N-(2-methylbenzyl)-1,1′-biphenyl-2-carboxamide]: the Ki was under 1000 nM.

Consider `COc1ccc(-c2ccccc2)c(C(=O)N(Cc2cccc(C)c2)C2Cc3ccccc3C2)c1` [compound 106, N-(indan-2-yl)-4-methoxy-N-(3-methylbenzyl)-1,1′-biphenyl-2-carboxamide], for which the Ki is under 1000 nM.

Take `COc1ccc(-c2ccccc2)c(C(=O)N(Cc2ccc(C)cc2)C2Cc3ccccc3C2)c1` [compound 107, N-(indan-2-yl)-4-methoxy-N-(4-methylbenzyl)-1,1′-biphenyl-2-carboxamide]: the Ki was under 1000 nM.
